Assay results published in ChEMBL document CHEMBL3352350, “Syntheses and structure-activity relationships in cytotoxicities of 13-substituted quaternary coptisine derivatives” (Eur J Med Chem, 2014).

Experiments:
[1] = Cytotoxicity against human Bel7402 cells assessed as growth inhibition rate at 0.1 to 100 umol/L after 96 hrs by MTT assay; type: functional, Bel-7402
[2] = Cytotoxicity against human HCT8 cells assessed as growth inhibition rate at 0.1 to 100 umol/L after 96 hrs by MTT assay; type: functional, HCT-8
A549 [3] = test: Cytotoxicity against human A549 cells assessed as growth inhibition rate at 0.1 to 100 umol/L after 96 hrs by MTT assay; type: functional
[4] = Cytotoxicity against human HCT8 cells assessed as growth inhibition rate after 96 hrs by MTT assay; type: functional, cell-based; conditions: HCT-8, 96 h
[5] = Cytotoxicity against human C33A cells assessed as growth inhibition rate at 0.1 to 100 umol/L after 96 hrs by MTT assay; type: functional, C-33-A
[6] = Cytotoxicity against human C33A cells assessed as growth inhibition rate after 96 hrs by MTT assay; type: functional, cell-based; conditions: C-33-A
A549 [7] = test: Cytotoxicity against human A549 cells assessed as growth inhibition rate after 96 hrs by MTT assay; type: functional, cell-based; conditions: A549, 96 h
[8] = Cytotoxicity against human Bel7402 cells assessed as growth inhibition rate after 96 hrs by MTT assay; type: functional, cell-based; conditions: Bel-7402, 96 h
[9] = Cytotoxicity against human BGC823 cells assessed as growth inhibition rate after 96 hrs by MTT assay; type: functional, cell-based; conditions: BGC-823, 96 h
A549 [10] = test: Ratio of 5-fluorouracil IC50 to compound IC50 for human A549 cells assessed as growth inhibition rate after 96 hrs by MTT assay; type: functional
HCT-8 = test: Ratio of 5-fluorouracil IC50 to compound IC50 for human HCT8 cells assessed as growth inhibition rate after 96 hrs by MTT assay; type: functional
Bel-7402 = test: Ratio of 5-fluorouracil IC50 to compound IC50 for human Bel7402 cells assessed as growth inhibition rate after 96 hrs by MTT assay; type: functional
C-33-A = test: Ratio of 5-fluorouracil IC50 to compound IC50 for human C33A cells assessed as growth inhibition rate after 96 hrs by MTT assay; type: functional

Row | SMILES | growth inhibition (GI) [1] [%] | growth inhibition (GI) [2] [%] | growth inhibition (GI) (A549 [3]) [%] | IC50 [4] | growth inhibition (GI) [5] [%] | IC50 [6] | IC50 (A549 [7]) | IC50 [8] | IC50 [9] [µM] | Ratio IC50 (A549 [10]) | Ratio IC50 (HCT-8) | Ratio IC50 (Bel-7402) | Ratio IC50 (C-33-A)
1 | CCCCCCc1c2[n+](cc3c4c(ccc13)OCO4)CCc1cc3c(cc1-2)OCO3.[Cl-] | 74.26 | 59.24 | 60.71 | 6.55 µM | 52.51 | > 5 µg/mL | 5.57 µM | 3.05 µM |  |  |  |  | 
2 | Cc1c2[n+](cc3c4c(ccc13)OCO4)CCc1cc3c(cc1-2)OCO3.[Cl-] | 2.43 | 35.62 | 42.83 | > 5 µg/mL | -7.22 | > 5 µg/mL | > 5 µg/mL | > 5 µg/mL |  |  |  |  | 
3 | [Cl-].c1ccc2cc(Cc3c4[n+](cc5c6c(ccc35)OCO6)CCc3cc5c(cc3-4)OCO5)ccc2c1 | 11.78 | 8.33 | 32.22 | > 10 µM |  |  | > 10 µM | > 10 µM | > 10 |  |  |  | 
4 | Fc1cccc(Cc2c3[n+](cc4c5c(ccc24)OCO5)CCc2cc4c(cc2-3)OCO4)c1.[Cl-] | 4.06 | 4.59 | 6.81 | > 10 µM |  |  | > 10 µM | > 10 µM | > 10 |  |  |  | 
5 | CCCCCc1c2[n+](cc3c4c(ccc13)OCO4)CCc1cc3c(cc1-2)OCO3.[Cl-] | 5.82 | 59.02 | 49.34 | 6.93 µM | -5.79 | > 5 µg/mL | > 5 µg/mL | > 5 µg/mL |  |  |  |  | 
6 | CCCCc1c2[n+](cc3c4c(ccc13)OCO4)CCc1cc3c(cc1-2)OCO3.[Cl-] | 21.81 | 32.57 | 32.79 | > 5 µg/mL | -6.66 | > 5 µg/mL | > 5 µg/mL | > 5 µg/mL |  |  |  |  | 
7 | Cc1ccc(Cc2c3[n+](cc4c5c(ccc24)OCO5)CCc2cc4c(cc2-3)OCO4)cc1.[Cl-] | 12.33 | 15.16 | 26.58 | > 10 µM |  |  | > 10 µM | > 10 µM | > 10 |  |  |  | 
8 | CCCc1c2[n+](cc3c4c(ccc13)OCO4)CCc1cc3c(cc1-2)OCO3.[Cl-] | -23.7 | 40.68 | 45.12 | > 5 µg/mL | -7.69 | > 5 µg/mL | > 5 µg/mL | > 5 µg/mL |  |  |  |  | 
9 | Fc1ccc(Cc2c3[n+](cc4c5c(ccc24)OCO5)CCc2cc4c(cc2-3)OCO4)c(F)c1.[Cl-] | 5.45 | 1.19 | 5.86 | > 10 µM |  |  | > 10 µM | > 10 µM | > 10 |  |  |  | 
10 | CCCCCCCCCCCc1c2[n+](cc3c4c(ccc13)OCO4)CCc1cc3c(cc1-2)OCO3.[Cl-] | 91.22 | 92.7 | 94.28 | 0.82 µM | 86.84 | 1.57 µM | 0.61 µM | 1.22 µM |  | 11 | 4 | 2 | 3
11 | FC(F)(F)c1cc(Cc2c3[n+](cc4c5c(ccc24)OCO5)CCc2cc4c(cc2-3)OCO4)cc(C(F)(F)F)c1.[Cl-] | 3.61 | -5.72 | 3.45 | > 10 µM |  |  | > 10 µM | > 10 µM | > 10 |  |  |  | 
12 | COc1ccc(Cc2c3[n+](cc4c5c(ccc24)OCO5)CCc2cc4c(cc2-3)OCO4)cc1.[Cl-] | 5.99 | 10.21 | 11.53 | > 10 µM |  |  | > 10 µM | > 10 µM | > 10 |  |  |  | 
13 | FC(F)(F)c1cccc(Cc2c3[n+](cc4c5c(ccc24)OCO5)CCc2cc4c(cc2-3)OCO4)c1.[Cl-] | 5.98 | -1.37 | 7.78 | > 10 µM |  |  | > 10 µM | > 10 µM | > 10 |  |  |  | 
14 | CCCCCCCCc1c2[n+](cc3c4c(ccc13)OCO4)CCc1cc3c(cc1-2)OCO3.[Cl-] | 89.32 | 65.54 | 73.99 | 3.33 µM | 63.28 | 7.31 µM | 1.88 µM | 1.43 µM |  |  |  |  | 
15 | CCCCCCCCCc1c2[n+](cc3c4c(ccc13)OCO4)CCc1cc3c(cc1-2)OCO3.[Cl-] | 43.46 | 43.24 | 49.29 | > 5 µg/mL | -16.26 | > 5 µg/mL | > 5 µg/mL | > 5 µg/mL |  |  |  |  | 
16 | CCOC(=O)c1c2[n+](cc3c4c(ccc13)OCO4)CCc1cc3c(cc1-2)OCO3.[Cl-] | 4.05 | 4 | 9.7 | > 10 µM |  |  | > 10 µM | > 10 µM | > 10 |  |  |  | 
17 | CCCCCCCCCCc1c2[n+](cc3c4c(ccc13)OCO4)CCc1cc3c(cc1-2)OCO3.[Cl-] | 89.98 | 71.93 | 75.26 | 1.81 µM | 61.31 | 4.31 µM | 1.83 µM | 1.43 µM |  |  |  |  | 
18 | CCc1c2[n+](cc3c4c(ccc13)OCO4)CCc1cc3c(cc1-2)OCO3.[Cl-] | 10.19 | 39.7 | 41.74 | > 5 µg/mL | -7.45 | > 5 µg/mL | > 5 µg/mL | > 5 µg/mL |  |  |  |  | 
19 | CCOC(=O)Cc1c2[n+](cc3c4c(ccc13)OCO4)CCc1cc3c(cc1-2)OCO3.[Cl-] | 8.43 | -9.3 | 1.25 | > 10 µM |  |  | > 10 µM | > 10 µM | > 10 |  |  |  | 
20 | CCCCCCCc1c2[n+](cc3c4c(ccc13)OCO4)CCc1cc3c(cc1-2)OCO3.[Cl-] | 86.6 | 61.02 | 71.89 | 5.86 µM | 63.75 | 6.94 µM | 2.58 µM | 1.92 µM |  |  |  |  | 
21 | [Cl-].c1c2c(cc3c1OCO3)-c1cc3ccc4c(c3c[n+]1CC2)OCO4 [COPTISINE CHLORIDE] | 12.24 | 62.06 | 49.91 | 5.59 µM | -10.71 | > 14.1 µM | > 14.1 µM | > 14.1 µM |  |  |  |  | 
22 | CCCCCCCCCCCCc1c2[n+](cc3c4c(ccc13)OCO4)CCc1cc3c(cc1-2)OCO3.[Cl-] | 87.63 | 91.28 | 94.03 | 1.03 µM | 84.73 | 1.43 µM | 0.59 µM | 1.32 µM |  |  |  |  | 
23 | CC(C)CCc1c2[n+](cc3c4c(ccc13)OCO4)CCc1cc3c(cc1-2)OCO3.[Cl-] | -2.18 | 30.75 | 38.49 | > 5 µg/mL | 48.99 | > 5 µg/mL | > 5 µg/mL | > 5 µg/mL |  |  |  |  | 
24 | Fc1ccccc1Cc1c2[n+](cc3c4c(ccc13)OCO4)CCc1cc3c(cc1-2)OCO3.[Cl-] | 6.94 | 26.26 | 18.8 | > 10 µM |  |  | > 10 µM | > 10 µM | > 10 |  |  |  | 
25 | O=c1[nH]cc(F)c(=O)[nH]1 [FLUOROURACIL] | 78.43 | 80.36 | 72.25 | 3.54 µM | 56.06 | 4.61 µM | 6.69 µM | 2.23 µM |  |  |  |  | 
26 | C1=C2c3cc4c(cc3CCN2Cc2c1ccc1c2OCO1)OCO4 | 27.27 | 30.88 | 32.09 | > 5 µg/mL | -10.65 | > 5 µg/mL | > 5 µg/mL | > 5 µg/mL |  |  |  |  | 
27 | O=[N+]([O-])c1ccc(Cc2c3[n+](cc4c5c(ccc24)OCO5)CCc2cc4c(cc2-3)OCO4)cc1.[Cl-] | -0.12 | -3.7 | 2.27 | > 10 µM |  |  | > 10 µM | > 10 µM | > 10 |  |  |  | 
28 | N#Cc1ccc(Cc2c3[n+](cc4c5c(ccc24)OCO5)CCc2cc4c(cc2-3)OCO4)cc1.[Cl-] | 4.03 | 3.69 | 2 | > 10 µM |  |  | > 10 µM | > 10 µM | > 10 |  |  |  | 
